According to publication PMC7769561, “Antileishmanial activity of synthetic analogs of the naturally occurring quinolone alkaloid N-methyl-8-methoxyflindersin” (PLoS ONE, 2020):

Key:
hMDMs = assay: Cytotoxicity in hMDMs (resazurin, 72 h); conditions: class by CC50
Method: We isolated hMDMs from buffy coats donated by the Institute of Local Science (Biotechnology and Health Innovation, Bogotá, Colombia) and spun them in Lymphoprep density gradient medium (Stem-Cell, Vancouver, Canada).
Next, we added 100 μL of this culture to each quinoline alkaloid–like compound at a concentration of 200, 20, 2, 0.2, and 0.02 μg/mL. […] Cells treated with amphotericin B (Sigma-Aldrich) were used as cell apoptosis (positive) controls. Results were expressed as the medial cytotoxic concentration (CC50) using Prism GraphPad software for nonlinear regression analysis (https://www.graphpad.com/scientific-software/prism/).
(§1) All assays required at least three independently duplicated experiments. We determined cytotoxicity against hMDMs and effectivity in L. (V) panamensis promastigotes according to each treatment’s mortality (compound and concentration) using Eq 1, where the control mean fluorescence intensity (MFI) was 100% viability: Validityinhibition(%)=100−[MIFexposedcells/MIFunexposedcells×100] (1)
(§2) We used GraphPad Prism nonlinear regression analysis to estimate the percentage mortality with regard to CC50 and EC50. […] The antileishmanial activity with regard to promastigotes was classified as active according to Eq 2: Active=EC50<[LC50/2], (2) where LC50 is the median lethal concentration. We also used GraphPad Prism nonlinear regression analysis to determine the intracellular antileishmanial activity (concentration vs. response), depending on the infection (number of infected cells) and parasite burden (number of parasites/cell) obtained in experimental conditions. Parasite inhibition was estimated using Eq 3, where the plate MFI is 100% parasites: Infectioninhibition(%)=100−[(MIFexposedparasites/MIFunexposedparasites×100)] (3)

[1] = tested on: L. (V.) panamensis promastigotes; assay: Antileishmanial activity in L. (V.) panamensis promastigotes (resazurin, 72 h); format: cell-based, Leishmania (Viannia) panamensis; conditions: L. (V.) panamensis promastigotes, ± SD
Method: They were treated with quinoline alkaloid–like compounds at a concentration of 100, 10, 1, 0.1, and 0.01 μg/mL for 72 h at 26°C. Next, we determined antileishmanial activity using the resazurin method (Sigma-Aldrich). Promastigotes treated with amphotericin B (Sigma-Aldrich) and pentamidine (Sanofi-Aventis, Gentilly, France) were used as parasite death (positive) controls. Results were expressed as the medial effective concentration (EC50) using Prism GraphPad software for nonlinear regression analysis (https://www.graphpad.com/scientific-software/prism/).
as §1, §2

[2] = Treatment toxicity in hamsters (live weight, ALT, creatinine, BUN); format: in vivo, golden hamster (Mesocrisetus auratus); conditions: topical 1% ointment
Source text: The hamsters were monitored every 4 weeks to assess their appearance and weight and the lesion size. We categorized each compound’s effectiveness pre- and posttreatment as follows: (i) cure (complete disappearance of lesions), (ii) improvement (>10% reduced lesion area), and (iii) therapeutic failure or nonresponse (increased lesion size). The health status was monitored weekly for 3 months (12 weeks) posttreatment. After 3 months, the hamsters were euthanized in a CO2 chamber. We performed histopathological analysis after necropsy of the affected tissues and organs. In addition, we evaluated treatment cytotoxicity using LW monitoring and biochemical parameters (alanine aminotransferase [ALT], creatinine, and blood urea nitrogen [BUN]) pretreatment and 45 days after ointment administration.

[3] = tested on: L. (V.) panamensis-infected hMDMs; assay: ROS generation in L. (V.) panamensis-infected hMDMs (H2DCFDA flow cytometry); format: cell-based, human
Method: (§3) Next, we detached the cells with ethylenediaminetetraacetic acid (EDTA)/trypsin (Lonza, MD, USA) and 2',7'-dichlorodihydrofluorescein diacetate (H2DCFDA) tagged on a 5 μM fluorescent tube (Sigma-Aldrich) in order to identify intracellular ROS and/or 4-amino-5-methylamino-2′,7′-difluorofluorescein (DAF-FM; Sigma-Aldrich) for NO production in a 5% CO2 atmosphere for 45 min at 37°C. ROS and NO were quantified using flow cytometry (FACS Canto II) at a wavelength of 480 nm. Untreated cells were used as negative controls, while cells treated with 0.0001% H2O2 and 1 μM phorbol myristate acetate were used as ROS production (positive) controls. LPS (10 ng/mL) and phytohemagglutinin (PHA-M) (10 μL/mL) (Invitrogen) were used as positive controls for NO production.

[4] = tested on: L. (V.) panamensis-infected hMDMs; assay: NO production in L. (V.) panamensis-infected hMDMs (DAF-FM flow cytometry); format: cell-based, human; conditions: compound at EC50, 24, 48 and 72 h
Method: as §3

[5] = tested on: L. (V.) panamensis-infected hMDMs; assay: Transmission electron microscopy of L. (V.) panamensis-infected hMDMs; format: cell-based, human; conditions: compound at EC50, 72 h, TEM; on Cell membrane (ultrastructural modification grade): key: -: no alteration/absence; +: low alteration/low presence; ++: alteration/moderate presence; +++: serious disturbance/abundant presence; on LB (lipid bodies, grade): key: -: no alteration/absence; +: low alteration/low presence; ++: alteration/moderate presence; +++: serious disturbance/abundant presence; on Mitochondria (ultrastructural modification grade): key: -: no alteration/absence; +: low alteration/low presence; ++: alteration/moderate presence; +++: serious disturbance/abundant presence; on Nucleus (ultrastructural modification grade): key: -: no alteration/absence; +: low alteration/low presence; ++: alteration/moderate presence; +++: serious disturbance/abundant presence
Source text: (§4) This procedure involved including fresh resin and 100–200-nm-wide ultrafine cuts observed by TEM (100X–10.000X) (HITACHI-HU-12; Hitachi, Tokyo, Japan).

[6] = tested on: L. (V.) panamensis intracellular amastigotes; assay: Transmission electron microscopy of L. (V.) panamensis intracellular amastigotes in hMDMs; format: cell-based, Leishmania (Viannia) panamensis; design: Nucleus (ultrastructural alteration grade) / Vacuoles (ultrastructural alteration grade): key: -: no alteration/absence; +: low alteration/low presence; ++: alteration/moderate presence; +++: serious disturbance/abundant presence; conditions: compound at EC50, 72 h, TEM
Source text: as §4

## 1,2,3,4-tetrahydro(benzo)-3-quinolin-ol [Compound 2]
hMDMs
  Cytotoxicity class toward hMDMs: high (high if CC50 < 100 μg/mL)
[1]
  EC50 Intracellular promastigotes: 3.4 ± 1.1 µg/mL
[1]; read-out: EC50 Intracellular promastigotes (converted)
  EC50: 17 µM
[2]
  Cytotoxicity-related clinical manifestations: No cytotoxicity-related clinical manifestations
  Live weight posttreatment: no evident changes during treatment
[3]; compound at EC50, 48 h posttreatment
  ROS generation: decrease in ROS generation
[3]; compound at EC50, first 4 h
  ROS generation: increase in ROS generation
[4]
  NO production compared to untreated infected hMDMs: do not modulate the induction of NO production
[5]
  Cell membrane (ultrastructural modification grade): -
  LB (lipid bodies, grade): +++
  Mitochondria (ultrastructural modification grade): +
  Nucleus (ultrastructural modification grade): -
  PV (description): Multiple parasites per vacuole
  PV (parasitophorous vacuoles, grade): +
  Parasites (grade): ++
  Vacuoles (ultrastructural modification grade): -
[6]
  Cell membrane (ultrastructural alteration grade): -
  Flagellum (flagellar/axonema pocket) (description): Multiple organelles
  Flagellum (flagellar/axonema pocket) (grade): ++
  LB (lipid bodies, grade): +++
  Mitochondria/Kinetoplasts (description): Multiple organelles
  Mitochondria/Kinetoplasts (ultrastructural alteration grade): ++
  Nucleus (description): Abnormal distribution of chromatine
  Nucleus (ultrastructural alteration grade): ++
  PV (description): Multiple
  PV (parasitophorous vacuoles, grade): +
  Vacuoles (description): Double membrane (autophagic-digestives)
  Vacuoles (ultrastructural alteration grade): +++
